Here are results for eight molecules from ChEMBL document CHEMBL1142084, “In vitro activities of tigecycline and eight other antimicrobials against different Nocardia species identified by molecular methods” (2007).

Holding throughout (assay type): functional
For test [1], the system named is Nocardia otitidiscaviarum. As to the kind of experiment: Antimicrobial activity against Nocardia otitidiscaviarum after 72 hrs by microdilution method. For orientation: Dilution methods test growth across graded concentrations, often in twofold steps.
Another test deals with Nocardia brasiliensis. As to the kind of experiment: Antimicrobial activity against Nocardia brasiliensis after 72 hrs by microdilution method.
Another test concerns Nocardia abscessus. As to the kind of experiment: Antimicrobial activity against Nocardia abscessus after 72 hrs by microdilution method.
The subject of the next test is Nocardia cyriacigeorgica. As to the kind of experiment: Antimicrobial activity against Nocardia cyriacigeorgica after 72 hrs by microdilution method.
The next test relates to Nocardia farcinica. As to the kind of experiment: Antimicrobial activity against Nocardia farcinica after 72 hrs by microdilution method.
The next test deals with Nocardia veterana. As to the kind of experiment: Antimicrobial activity against Nocardia veterana after 72 hrs by microdilution method.
Another test concerns Nocardia beijingensis. Put plainly: Antimicrobial activity against Nocardia beijingensis after 72 hrs by microdilution method.
In a further test the test system is Nocardia nova. Put plainly: Antimicrobial activity against Nocardia nova after 72 hrs by microdilution method.
A further test deals with Nocardia carnea. As to the kind of experiment: Antimicrobial activity against Nocardia carnea after 72 hrs by microdilution method.
Another test deals with Nocardia sp. As to the kind of experiment: Antimicrobial activity against Nocardia sp. after 72 hrs by microdilution method.
The next test deals with Nocardia transvalensis. As to the kind of experiment: Antimicrobial activity against Nocardia transvalensis after 72 hrs by microdilution method.

Structures are written as SMILES. In brackets after ≈: the same amount, converted by molar mass. Some results are limits rather than exact numbers.

Take `C[C@@H](O)[C@H]1C(=O)N2C(C(=O)O)=C(SCCNC=N)C[C@H]12` [IMIPENEM ANHYDROUS]: the MIC (commonly the lowest concentration found to suppress growth) is 0.5 µg/mL (≈ 1.67 µM) in [1]; 1 µg/mL (≈ 3.34 µM) against Nocardia brasiliensis; 0.5 µg/mL (≈ 1.67 µM) against Nocardia abscessus; not above 0.06 µg/mL against Nocardia cyriacigeorgica; 1 µg/mL (≈ 3.34 µM) against Nocardia farcinica; not above 0.06 µg/mL in the test on Nocardia veterana. In addition, the MIC is 0.5 µg/mL (≈ 1.67 µM) against Nocardia beijingensis; 0.12 µg/mL (≈ 0.401 µM) in the test with Nocardia nova; 0.5 µg/mL (≈ 1.67 µM) against Nocardia carnea; not above 0.06 µg/mL in the test on Nocardia sp.; more than 64 µg/mL in the test with Nocardia transvalensis.

Turning to `C[C@@H](O)[C@H]1C(=O)N2C(C(=O)O)=C(S[C@@H]3CN[C@H](C(=O)Nc4cccc(C(=O)O)c4)C3)[C@H](C)[C@H]12` [ERTAPENEM], the MIC in test [1] is 1 µg/mL (≈ 2.1 µM); in the test with Nocardia brasiliensis, 2 µg/mL (≈ 4.21 µM); in the test with Nocardia abscessus it was 0.5 µg/mL (≈ 1.05 µM); against Nocardia cyriacigeorgica it was not above 0.06 µg/mL; in the test with Nocardia farcinica, 4 µg/mL (≈ 8.41 µM); against Nocardia veterana, 0.25 µg/mL (≈ 0.526 µM). In addition, the MIC in the test with Nocardia beijingensis was 2 µg/mL (≈ 4.21 µM); with Nocardia nova, 0.5 µg/mL (≈ 1.05 µM); with Nocardia carnea, 2 µg/mL (≈ 4.21 µM); against Nocardia sp. it was 0.25 µg/mL (≈ 0.526 µM); against Nocardia transvalensis it was more than 64 µg/mL.

Regarding `CN(C)c1ccc(O)c2c1C[C@H]1C[C@H]3[C@H](N(C)C)C(O)=C(C(N)=O)C(=O)[C@@]3(O)C(O)=C1C2=O` [MINOCYCLINE], the MIC in test [1] is 0.5 µg/mL (≈ 1.09 µM); against Nocardia brasiliensis it was 1 µg/mL (≈ 2.19 µM); in the test with Nocardia abscessus, not above 0.06 µg/mL; with Nocardia cyriacigeorgica, not above 0.06 µg/mL; in the test with Nocardia farcinica it was 1 µg/mL (≈ 2.19 µM); in the test with Nocardia veterana, 1 µg/mL (≈ 2.19 µM). The MIC against Nocardia beijingensis was not above 0.06 µg/mL; in the test on Nocardia nova, 1 µg/mL (≈ 2.19 µM); with Nocardia carnea it was 0.5 µg/mL (≈ 1.09 µM); with Nocardia sp., 0.25 µg/mL (≈ 0.546 µM); with Nocardia transvalensis it was 1 µg/mL (≈ 2.19 µM).

Regarding `CN(C)c1cc(NC(=O)CNC(C)(C)C)c(O)c2c1C[C@H]1C[C@H]3[C@H](N(C)C)C(O)=C(C(N)=O)C(=O)[C@@]3(O)C(O)=C1C2=O` [TIGECYCLINE], the MIC in test [1] was not above 0.06 µg/mL; against Nocardia brasiliensis it was not above 0.06 µg/mL; against Nocardia abscessus, not above 0.06 µg/mL; in the test with Nocardia cyriacigeorgica, not above 0.06 µg/mL; against Nocardia farcinica it was 1 µg/mL (≈ 1.71 µM); in the test on Nocardia veterana it was 0.12 µg/mL (≈ 0.205 µM). In addition, the MIC in the test with Nocardia beijingensis is 0.25 µg/mL (≈ 0.427 µM); in the test with Nocardia nova it was 0.5 µg/mL (≈ 0.854 µM); against Nocardia carnea it was not above 0.06 µg/mL; with Nocardia sp., not above 0.06 µg/mL; in the test on Nocardia transvalensis it was 2 µg/mL (≈ 3.41 µM).

For `COc1c(N2C[C@@H]3CCCN[C@@H]3C2)c(F)cc2c(=O)c(C(=O)O)cn(C3CC3)c12` [MOXIFLOXACIN], the MIC is not above 0.06 µg/mL in [1]; not above 0.06 µg/mL against Nocardia brasiliensis; 1 µg/mL (≈ 2.49 µM) against Nocardia abscessus; not above 0.06 µg/mL with Nocardia cyriacigeorgica; not above 0.06 µg/mL in the test with Nocardia farcinica; 0.5 µg/mL (≈ 1.25 µM) with Nocardia veterana. The MIC was not above 0.06 µg/mL in the test on Nocardia beijingensis; 2 µg/mL (≈ 4.98 µM) with Nocardia nova; not above 0.06 µg/mL against Nocardia carnea; not above 0.06 µg/mL with Nocardia sp.; 0.12 µg/mL (≈ 0.299 µM) in the test with Nocardia transvalensis.

For the molecule `NCC[C@H](O)C(=O)N[C@@H]1C[C@H](N)[C@@H](O[C@H]2O[C@H](CN)[C@@H](O)[C@H](O)[C@H]2O)[C@H](O)[C@H]1O[C@H]1O[C@H](CO)[C@@H](O)[C@H](N)[C@H]1O` [AMIKACIN], the MIC in test [1] is 1 µg/mL (≈ 1.71 µM); against Nocardia brasiliensis, 1 µg/mL (≈ 1.71 µM); in the test with Nocardia abscessus, not above 0.06 µg/mL; in the test on Nocardia cyriacigeorgica, not above 0.06 µg/mL; in the test with Nocardia farcinica it was 1 µg/mL (≈ 1.71 µM); in the test with Nocardia veterana it was 0.25 µg/mL (≈ 0.427 µM). In addition, the MIC was not above 0.06 µg/mL with Nocardia beijingensis; 0.12 µg/mL (≈ 0.205 µM) against Nocardia nova; 0.5 µg/mL (≈ 0.854 µM) against Nocardia carnea; 0.25 µg/mL (≈ 0.427 µM) with Nocardia sp.; 32 µg/mL (≈ 54.6 µM) in the test with Nocardia transvalensis.

Regarding `CC(=O)NC[C@H]1CN(c2ccc(N3CCOCC3)c(F)c2)C(=O)O1` [LINEZOLID], the MIC was not above 0.06 µg/mL in [1]; 1 µg/mL (≈ 2.96 µM) with Nocardia brasiliensis; not above 0.06 µg/mL in the test on Nocardia abscessus; 0.12 µg/mL (≈ 0.356 µM) with Nocardia cyriacigeorgica; 0.12 µg/mL (≈ 0.356 µM) in the test with Nocardia farcinica; 0.25 µg/mL (≈ 0.741 µM) with Nocardia veterana. Besides, the MIC was not above 0.06 µg/mL against Nocardia beijingensis; 0.12 µg/mL (≈ 0.356 µM) against Nocardia nova; not above 0.06 µg/mL in the test on Nocardia carnea; not above 0.06 µg/mL against Nocardia sp.; 1 µg/mL (≈ 2.96 µM) in the test on Nocardia transvalensis.

With `C[C@@H](O)[C@H]1C(=O)N2C(C(=O)O)=C(S[C@@H]3CN[C@H](C(=O)N(C)C)C3)[C@H](C)[C@H]12` [MEROPENEM], the MIC is 1 µg/mL (≈ 2.61 µM) in test [1]; 1 µg/mL (≈ 2.61 µM) in the test on Nocardia brasiliensis; 0.25 µg/mL (≈ 0.652 µM) with Nocardia abscessus; not above 0.06 µg/mL against Nocardia cyriacigeorgica; 2 µg/mL (≈ 5.22 µM) in the test with Nocardia farcinica; 0.12 µg/mL (≈ 0.313 µM) against Nocardia veterana. The MIC in the test on Nocardia beijingensis was 2 µg/mL (≈ 5.22 µM); in the test with Nocardia nova it was 0.5 µg/mL (≈ 1.3 µM); against Nocardia carnea, 1 µg/mL (≈ 2.61 µM); against Nocardia sp. it was not above 0.06 µg/mL; in the test with Nocardia transvalensis, more than 64 µg/mL.
